Experimental data: patent US20170217931A1, “COMPOUNDS FOR USE IN ANTHELMINTHIC TREATMENT” (Bayer Animal Health GMBH, priority 2014, published 2017)
Where two headings read alike, the source gives them in different places.

Columns and labels:
[1] = Log P by HPLC on reversed phase columns, acidic range (EEC directive 79/831 Annex V.A8); type: physicochemical
Description: Measurement of Log P values was performed according to EEC directive 79/831 Annex V.A8 by HPLC (High Performance Liquid Chromatography) on reversed phase columns with the following methods: • [^a] Log P value is determined by measurement of LC-UV, in an acidic range, with 0.1% formic acid in water and acetonitrile as eluent (linear gradient from 10% acetonitrile to 95% acetonitrile). • [^b] Log P value is determined by measurement of LC-UV, in a neutral range, with 0.001 molar ammonium acetate solution in water and acetonitrile as eluent (linear gradient from 10% acetonitrile to 95% acetonitrile).
Calibration was done with straight-chain alkan-2-ones (with 3 to 16 carbon atoms) with known Log P values (measurement of Log P values using retention times with linear interpolation between successive alkanones). Lambda-max-values were determined using UV-spectra from 200 nm to 400 nm and the peak values of the chromatographic signals.

Cooperia curticei = assay: microbe, parasite or virus in culture; type: cell-based; settings: 120 h, read-out: activity (larval mortality)
Description: (§1) To produce a suitable preparation of active compound, 10 mg of active compound are dissolved in 0.5 ml dimethyl sulfoxide, and the concentrate is diluted with “Ringer's solution” to the desired concentration.
Approximately 40 nematode larvae (Cooperia curticei) are transferred into a test tube containing the compound solution. After 5 days percentage of larval mortality is recorded. 100% efficacy means all larvae are killed; 0% efficacy means no larvae are killed.

Haemonchus contortus = assay: microbe, parasite or virus in culture; type: cell-based; settings: 120 h, read-out: activity (larval mortality)
Description: as §1
Approximately 40 larvae of the red stomach worm (Haemonchus contortus) are transferred into a test tube containing compound solution. After 5 days percentage of larval mortality are recorded. 100% efficacy means all larvae are killed, 0% efficacy means no larvae are killed.

[2] = 20 ppm, after 5 days, Haemonchus contortus larvae
[3] = reversed phase HPLC columns; LC-UV, acidic range, 0.1% formic acid in water and acetonitrile; read-out: logP a) (HCOOH)
[4] = 4 ppm, after 5 days, Cooperia curticei larvae
[5] = 20 ppm, after 5 days, Cooperia curticei larvae

Compound	chromatographic logP ([1]; LC-UV, acidic range, 0.1% formic acid in water and acetonitrile; read-out: logP a) (HCOOH))	mortality at 4 ppm (Cooperia curticei; Cooperia curticei)	mortality at 20 ppm (Cooperia curticei; Cooperia curticei)	mortality at 20 ppm (Haemonchus contortus; [2])	chromatographic logP [1, 3]	mortality at 4 ppm (Cooperia curticei; [4])	mortality at 20 ppm (Cooperia curticei; [5])	mortality at 20 ppm (Haemonchus contortus; Haemonchus contortus)	chromatographic logP [1]
O=C(NCC(F)(F)c1ncc(-c2ccoc2)cc1Cl)c1ccccc1C(F)(F)F [Example 1]	3.21	≥ 90%	100%						
Cc1occc1-c1cnc(C(F)(F)CNC(=O)c2ccccc2C(F)(F)F)c(Cl)c1 [Example 2]				90%	3.53	≥ 90%	100%		
O=C(NCC(F)(F)c1ncc(-n2cc(C(F)(F)F)cn2)cc1Cl)c1ccccc1C(F)(F)F [Example 3, N-[2-[3-chloro-5-[4-(trifluoromethyl)pyrazol-1-yl]-2-pyridyl]-2,2-difluoro-ethyl]-2-(trifluoromethyl)benzamide]		≥ 90%	100%					100%	3.62
Cn1ccc(-c2cnc(C(F)(F)CNC(=O)c3ccccc3C(F)(F)F)c(Cl)c2)c1 [Example 4]					3.22	≥ 90%			
O=C(NCC(F)(F)c1ncc(-n2cc(F)cn2)cc1Cl)c1ccccc1C(F)(F)F [Example 5]				90%	3.12	≥ 90%	100%		
Cn1c(C(F)(F)F)nn(-c2cnc(C(F)(F)CNC(=O)c3ccccc3C(F)(F)F)c(Cl)c2)c1=O [Example 6]		≥ 90%	100%					100%	3.32
O=C(NCC(F)(F)c1ncc(-n2cc(F)cn2)cc1Cl)c1nccnc1C(F)(F)F [Example 7]					2.88				
O=C(NCC(F)(F)c1ncc(-n2ccc(C(F)(F)F)n2)cc1Cl)c1nccnc1C(F)(F)F [Example 8]		≥ 90%	100%						3.49
O=C(NCC(F)(F)c1ncc(-n2cc(F)cn2)cc1Cl)c1cccnc1C(F)(F)F [Example 9]					2.7	≥ 90%	100%		
O=C(NCC(F)(F)c1ncc(-n2cc(C(F)(F)F)cn2)cc1Cl)c1nccnc1C(F)(F)F [Example 10]				100%	3.43	≥ 90%	100%		
O=C(NCC(F)(F)c1ncc(-n2ccc(C(F)(F)F)n2)cc1Cl)c1ccccc1C(F)(F)F [Example 11]		≥ 90%	100%					100%	3.63
O=C(NCC(F)(F)c1ncc(-n2cc(Cl)cn2)cc1Cl)c1ccccc1C(F)(F)F [Example 12]		≥ 90%	100%					100%	3.5
O=C(NCC(F)(F)c1ncc(-n2ccc(C(F)(F)F)n2)cc1Cl)c1cccnc1C(F)(F)F [Example 13]					3.27	≥ 90%	100%		
O=C(NCC(F)(F)c1ncc(-n2cc(C(F)(F)F)cn2)cc1Cl)c1cccnc1C(F)(F)F [Example 14]				100%	3.24	≥ 90%	100%		
O=C(NCC(F)(F)c1ncc(-c2cnn(CC(F)(F)F)c2)cc1Cl)c1ccccc1C(F)(F)F [Example 15]					3.1	≥ 90%	100%		
O=C(NCC(F)(F)c1ncc(-c2cnn(CC(F)(F)F)c2)cc1Cl)c1cccnc1C(F)(F)F [Example 16]					2.66		100%		
O=C(NCC(F)(F)c1ncc(-c2cnn(CC(F)(F)F)c2)cc1Cl)c1nccnc1C(F)(F)F [Example 17]					2.85		100%		
O=C(NCC(F)(F)c1ncc(-n2cc(Cl)cn2)cc1Cl)c1cccnc1C(F)(F)F [Example 18]				100%	3.07	≥ 90%	100%		
